{"source": "patent US20160264568A1", "about": "“SUBSTITUTED TRIAZOLOPYRIDINES HAVING ACTIVITY AS MPS-1 INHIBITORS” (BAYER PHARMA AKTIENGESELLSCHAFT, priority 2013, published 2016)", "key": {"[1]": {"test_system": "HeLa human cervical tumor cells", "test": "HeLa cell proliferation assay (crystal violet)", "format": "cell-based", "conditions": "96 h, 4 days incubation, crystal violet staining, read-out: Inhibition of cell proliferation, cell Line: HeLa IC50", "protocol": "Cultivated tumor cells (MCF7, hormone dependent human mammary carcinoma cells, ATCC HTB22; NCI-H460, human non-small cell lung carcinoma cells, ATCC HTB-177; DU 145, hormone-independent human prostate carcinoma cells, ATCC HTB-81; HeLa-MaTu, human cervical carcinoma cells, EPO-GmbH, Berlin; HeLa-MaTu-ADR, multidrug-resistant human cervical carcinoma cells, EPO-GmbH, Berlin; HeLa human cervical tumor cells, ATCC CCL-2; B16F10 mouse melanoma cells, ATCC CRL-6475) were plated at a density of 5000 cells/well (MCF7, DU145, HeLa-MaTu-ADR), 3000 cells/well (NCI-H460, HeLa-MaTu, HeLa), or 1000 cells/well (B16F10) in a 96-well multititer plate in 200 μl of their respective growth medium supplemented 10% fetal calf serum. […] Cell proliferation was determined by staining the cells with crystal violet: the cells were fixed by adding 20 μl/measuring point of an 11% glutaric aldehyde solution for 15 minutes at room temperature. […] The extinction of the stained cells was determined by photometry at a wavelength of 595 nm. The change of cell number, in percent, was calculated by normalization of the measured values to the extinction values of the zero-point plate (=0%) and the extinction of the untreated (0 μm) cells (=100%). The […] values were determined by means of a 4 parameter fit using the company's own software. […]"}, "[2]": {"biological_target": "T1, human kinase Mps-1 (Homo sapiens, UniProt P33981)", "T1 construct": "N-terminally GST-tagged human full length recombinant Mps-1 kinase; GST (N); purchased Invitrogen, Karslruhe, Germany PV4071", "T1 sequence (P33981 1-857)": "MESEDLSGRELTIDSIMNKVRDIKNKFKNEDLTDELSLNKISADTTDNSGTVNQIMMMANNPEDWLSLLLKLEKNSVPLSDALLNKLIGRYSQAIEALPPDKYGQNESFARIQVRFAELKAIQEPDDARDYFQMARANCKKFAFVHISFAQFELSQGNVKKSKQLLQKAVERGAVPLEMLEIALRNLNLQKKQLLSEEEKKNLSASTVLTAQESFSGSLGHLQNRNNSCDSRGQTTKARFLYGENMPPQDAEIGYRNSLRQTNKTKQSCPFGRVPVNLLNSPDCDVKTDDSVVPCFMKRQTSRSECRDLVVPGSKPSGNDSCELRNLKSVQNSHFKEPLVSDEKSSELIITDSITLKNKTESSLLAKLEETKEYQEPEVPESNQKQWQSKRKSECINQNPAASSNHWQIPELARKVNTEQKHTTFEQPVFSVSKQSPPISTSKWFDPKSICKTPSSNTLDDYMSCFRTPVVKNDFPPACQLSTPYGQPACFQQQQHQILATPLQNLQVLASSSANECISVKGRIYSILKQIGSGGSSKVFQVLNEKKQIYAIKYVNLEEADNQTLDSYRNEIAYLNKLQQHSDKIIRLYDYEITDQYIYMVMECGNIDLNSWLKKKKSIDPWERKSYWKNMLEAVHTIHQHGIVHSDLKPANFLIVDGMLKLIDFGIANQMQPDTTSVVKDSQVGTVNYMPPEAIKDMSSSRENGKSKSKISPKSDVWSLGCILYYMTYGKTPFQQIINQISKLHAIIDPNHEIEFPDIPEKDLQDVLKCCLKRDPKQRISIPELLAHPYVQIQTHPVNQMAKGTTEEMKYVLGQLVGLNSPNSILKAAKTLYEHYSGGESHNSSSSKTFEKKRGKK", "test": "Mps-1 kinase assay (TR-FRET)", "format": "biochemical", "protocol": "The human kinase Mps-1 phosphorylates a biotinylated substrate peptide. Detection of the phosphorylated product is achieved by time-resolved fluorescence resonance energy transfer (TR-FRET) from Europium-labelled anti-phospho-Serine/Threonine antibody as donor to streptavidin labelled with cross-linked allophycocyanin (SA-XLent) as acceptor. Compounds are tested for their inhibition of the kinase activity.\nN-terminally GST-tagged human full length recombinant Mps-1 kinase (purchased from Invitrogen, Karslruhe, Germany, cat. no PV4071) was used. […]\nThe resulting mixture was incubated 1 h at 22° C. to allow the binding of the phosphorylated peptide to the anti-phospho(Ser/Thr)-Europium-antibody. Subsequently the amount of phosphorylated substrate was evaluated by measurement of the resonance energy transfer from the Europium-labelled anti-phospho(Ser/Thr) antibody to the Streptavidin-XLent. Therefore, the fluorescence emissions at 620 nm and 665 nm after excitation at 350 nm was measured in a Viewlux TR-FRET reader (PerkinElmer LAS, Rodgau-Jugesheinn, Germany). The “blank-corrected normalized ratio” (a Viewlux specific readout, similar to the traditional ratio of the emissions at 665 nm and at 622 nm, in which blank and Eu-donor crosstalk are subtracted from the 665 nm signal before the ratio is calculated) was taken as the measure for the amount of phosphorylated substrate. […]"}, "[3]": {"test": "Metabolic stability in vitro, rat liver microsomes", "format": "in vitro ADME", "conditions": "maximal oral bioavailability calculated from microsomal half-life, 1 μM compound", "protocol": "(§1) The metabolic stability of test compounds in vitro was determined by incubating them at 1 μM with a suspension of liver microsomes in 100 mM phosphate buffer, pH7.4 (NaH2PO4xH2O+Na2HPO4x2H2O) at a protein concentration of 0.5 mg/mL and at 37° C. The reaction was activated by adding a co-factor mix containing 1.2 mg NADP, 3 IU glucose-6-phosphate dehydrogenase, 14.6 mg glucose-6-phosphate and 4.9 mg MgCl2 in phosphate buffer, pH 7.4. Organic solvent in the incubations was limited to <0.2% dimethylsulfoxide (DMSO) and <1% methanol. During incubation, the microsomal suspensions were continuously shaken and aliquots were taken at 2, 8, 16, 30, 45 and 60 min, to which equal volumes of cold methanol were immediately added. Samples were frozen at −20° C. over night, subsequently centrifuged for 15 minutes at 3000 rpm and the supernatant was analyzed with an Agilent 1200 HPLC-system with LCMS/MS detection.\n(§2) The half-life of a test compound was determined from the concentration-time plot. From the half-life the intrinsic clearances were calculated. Together with the additional parameters liver blood flow, specific liver weight and microsomal protein content the hepatic in vivo blood clearance (CL) and the maximal oral bioavailability (Fmax) were calculated for the different species. […]"}, "[4]": {"test": "Metabolic stability in vitro, human liver microsomes", "format": "in vitro ADME", "conditions": "maximal oral bioavailability calculated from microsomal half-life, 1 μM compound", "protocol": "as §1, §2"}, "[5]": {"test": "Metabolic stability in vitro, dog liver microsomes", "format": "in vitro ADME", "conditions": "maximal oral bioavailability calculated from microsomal half-life, 1 μM compound", "protocol": "as §1, §2"}}, "note": "Like-named read-outs stand apart in the source and are kept apart here.", "data": [{"smiles": "COc1cc2c(cc1Nc1nc3ccc(-c4ccc(NC(=O)[C@H](C)c5ccc(F)cc5)cc4)cn3n1)CCS2(=O)=O", "note": "[Example01.01, (2R)-2-(4-fluorophenyl)-N-(4-{2-[(6-methoxy-1,1-dioxido-2,3-dihydro-1-benzothiophen-5-yl)amino][1,2,4]triazolo[1,5-a]pyridin-6-yl}phenyl)propanamide]", "values": [{"measurement": "IC50", "setting": "[1]", "value": "< 400", "unit": "nM"}, {"measurement": "IC50", "setting": "[2]; 10 μM ATP, read-out: Mps-1 Inhibition, IC50 (Assay with 10 μM ATP)", "value": "< 1", "unit": "nM"}, {"measurement": "IC50", "setting": "[2]; 2 mM ATP, read-out: Mps-1 Inhibition, IC50 (Assay with 2 mM ATP)", "value": 1.6, "unit": "nM"}, {"measurement": "Rat liver microsomes; Fmax [%]", "setting": "[3]", "value": 96, "unit": "%"}, {"measurement": "Human liver microsomes; Fmax [%]", "setting": "[4]", "value": 83, "unit": "%"}, {"measurement": "Dog liver microsomes; Fmax [%]", "setting": "[5]", "value": 65, "unit": "%"}]}]}
